Where two headings read alike, the source gives them in different places.
How the values were obtained:
Type in all cases: cell-based
Leptosphaeria nodorum = assay: Fungicidal activity against Leptosphaeria nodorum, microtiter plate (MTP) test; settings: Parastagonospora nodorum, 168 h, read-out: Observed efficacy
[1] = system: Colletotrichum orbiculare; assay: Fungicidal activity against Colletotrichum orbiculare in the microtiterplate test; settings: Colletotrichum orbiculare, read-out: Observed efficacy
Botrytis cinerea = assay: Fungicidal activity against Botrytis cinerea, micro titer plate (MTP) test; settings: Botrytis cinerea, 168 h, I.A alone, read-out: Observed efficacy
Pyricularia oryzae = assay: microbe, parasite or virus in culture; settings: Pyricularia oryzae, 168 h, read-out: Observed efficacy
Septoria tritici = assay: Fungicidal activity against Septoria tritici, micro titer plate (MTP) test; settings: Zymoseptoria tritici, 168 h, Table V.7, I.A alone, read-out: Observed efficacy

CNC(=O)c1ccc(-c2noc(C(F)(F)F)n2)cc1 [I.A, N-methyl-4-[5-(trifluoromethyl)-1,2,4-oxadiazol-3-yl]benzamide]
inhibition of growth at […] (Leptosphaeria nodorum; 0.063 ppm): 3%
inhibition of growth at 1 ppm (Leptosphaeria nodorum; 1 ppm): 6%
inhibition of growth at 4 ppm (Leptosphaeria nodorum; 4 ppm): 14%
inhibition of growth at 16 ppm (Leptosphaeria nodorum; 16 ppm): 27%
inhibition of growth at […] ([1]; 0.00025 ppm): 2%
inhibition of growth at 0.001 ppm ([1]; 0.001 ppm): 2%
inhibition of growth at 0.004 ppm ([1]; 0.004 ppm): 2%
inhibition of growth at […] ([1]; 0.016 ppm): 2%
inhibition of growth at […] ([1]; 0.063 ppm): 71%
inhibition of growth at […] (Botrytis cinerea; 0.25 ppm): 3%
inhibition of growth at 4 ppm (Botrytis cinerea; 4 ppm): 1%
inhibition of growth at 16 ppm (Botrytis cinerea; 16 ppm): 12%
inhibition of growth at 1 ppm (Pyricularia oryzae): 6%
inhibition of growth at 4 ppm (Pyricularia oryzae): 12%
inhibition of growth at 16 ppm (Pyricularia oryzae): 38%
inhibition of growth at […] (Septoria tritici; 0.063 ppm): 3%
inhibition of growth at […] (Septoria tritici; 0.25 ppm): 2%
inhibition of growth at 1 ppm (Septoria tritici; 1 ppm): 0%
inhibition of growth at 4 ppm (Septoria tritici; 4 ppm): 8%
inhibition of growth at 16 ppm (Septoria tritici; 16 ppm): 19%
